Where a SMILES comes first, the peptide text is derived from it.
Assays:
[1] = molecular target: Coagulation Factor Xa, from uman plasma (Homo sapiens, UniProt P00742)
Chymase, from human skin = molecular target: T1, Chymase, from human skin (Homo sapiens, UniProt P23946)
T1 sequence (P23946 22-247): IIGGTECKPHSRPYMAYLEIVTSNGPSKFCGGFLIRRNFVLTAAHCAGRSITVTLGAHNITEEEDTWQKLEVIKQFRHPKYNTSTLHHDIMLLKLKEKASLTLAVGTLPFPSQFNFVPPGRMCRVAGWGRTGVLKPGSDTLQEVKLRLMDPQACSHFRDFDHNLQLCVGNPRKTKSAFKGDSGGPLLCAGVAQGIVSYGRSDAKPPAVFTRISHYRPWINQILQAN

[2] = molecular target: Thrombin, from Human Plasma (Homo sapiens, UniProt P00734)
[3] = molecular target: T2, Elastase from human neutrophils (Homo sapiens, UniProt P08246); assay: Enzymatic assay, elastase; settings: Elastase IC50
T2 sequence (P08246 30-267): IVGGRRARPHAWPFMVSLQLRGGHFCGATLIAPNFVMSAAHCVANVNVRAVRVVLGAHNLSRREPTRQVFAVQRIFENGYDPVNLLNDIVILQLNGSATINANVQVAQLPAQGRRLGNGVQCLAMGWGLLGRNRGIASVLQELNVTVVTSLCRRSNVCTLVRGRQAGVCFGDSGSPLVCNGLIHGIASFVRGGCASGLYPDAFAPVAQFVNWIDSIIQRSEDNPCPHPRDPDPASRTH

HELA cells (Acc57) = assay: Cytotoxicity assay (MTT reduction), HELA cells; format: cell-based; settings: Hela cells
Outline: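 HeLa cells were grown for 24 h, then exposed to peptides at 12.5, 25 and 50 μM in triplicate for 48 h at 37 °C. MTT reduction was read at 595 nm and growth % calculated relative to time-zero wells. LC50 interpolated by linear trend at −50% growth, GI50 at 50%.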

[4] = molecular target: Urokinase from human urine (Homo sapiens, UniProt P00749)
[5] = test system: Tryptase, from human lung; assay: Enzymatic assay, tryptase; settings: at 100 μM
[6] = molecular target: T3, CathepsinG, from human neutrophils (Homo sapiens, UniProt P08311); assay: Enzymatic assay, cathepsin G; settings: Cathepsin G IC50
T3 sequence (P08311 21-244): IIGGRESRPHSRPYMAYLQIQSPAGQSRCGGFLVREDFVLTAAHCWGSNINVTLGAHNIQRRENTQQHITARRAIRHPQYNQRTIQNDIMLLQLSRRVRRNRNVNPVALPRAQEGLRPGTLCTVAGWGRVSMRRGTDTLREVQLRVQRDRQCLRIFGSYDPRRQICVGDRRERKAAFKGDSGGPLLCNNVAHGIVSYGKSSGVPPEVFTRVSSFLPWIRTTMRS

[7] = molecular target: T4, Chymotrypsin, from human pancreas (Homo sapiens, UniProt P17538)
T4 sequence (P17538 19-263): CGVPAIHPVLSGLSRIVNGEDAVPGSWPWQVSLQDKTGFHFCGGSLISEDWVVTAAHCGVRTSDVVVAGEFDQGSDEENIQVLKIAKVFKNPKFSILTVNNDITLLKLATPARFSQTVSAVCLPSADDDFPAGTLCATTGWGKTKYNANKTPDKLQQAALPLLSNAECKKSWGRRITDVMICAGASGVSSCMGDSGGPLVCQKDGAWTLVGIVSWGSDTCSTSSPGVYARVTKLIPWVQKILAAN

[8] = molecular target: Trypsin, from human pancreas (Homo sapiens, UniProt P07477)
[9] = test system: human red blood cells (hRBC); assay: Hemolysis
[10] = format: in vitro ADME; settings: 10 µM
Description: 405 μl of plasma/albumin solution were placed in a polypropylene (PP) tube and spiked with 45 μl of compound from a […] solution B, derived from 135 μl of PBS and 15 μl of 1 mM peptide in PBS, pH 7.4. 150 μl aliquots were transferred into individual wells of the 10 kDa filter plate (Millipore MAPPB 1010 Biomax membrane). For “0 minutes controls”: 270 μl of PBS were placed in a PP tube and 30 μl of stock solution B was added and vortexed. 150 μl of control solution were placed into one well of the filter plate and served as “filtered control”.
Further 150 μl of control solution were placed directly into a receiver well (reserved for filtrate) and served as “not-filtered control”. The entire plate including evaporation lid was incubated for 60 min at 37° C. Plasma samples (rat plasma: Harlan Sera lab UK, human plasma: Blutspendezentrum Zürich) were centrifuged at least for 2 h at 4300 rpm (3500 g) and 15° C. in order to yield 100 filtrate. For “serum albumin”-samples (freshly prepared human albumin: Sigma A-4327, rat albumin: Sigma A-6272, all at 40 mg/ml concentration in PBS) approximately 1 hour of centrifugation was sufficient. The filtrates in the receiver PP plate were analysed by LC/MS as follower follows: Column: Jupiter C18 (Phenomenex), mobile phases: (A) 0.1% formic acid in water and (B) acetonitrile, gradient: 5%-100% (B) in 2 minutes, electrospray ionization, MRM detection (triple quadrupole). The peak areas were determined and triplicate values were averaged. The binding was expressed in percent of the (filtered and not-filtered time point 0 min) control 1 and 2 by: 100−(100×T60/T0). The average from these values was then calculated.

[11] = molecular target: T4, Chymotrypsin, from human pancreas; assay: Enzymatic assay, chymotrypsin
[12] = molecular target: T3, CathepsinG, from human neutrophils

Sequence of Coagulation Factor Xa, from uman plasma (P00742 235-488 limits assumed): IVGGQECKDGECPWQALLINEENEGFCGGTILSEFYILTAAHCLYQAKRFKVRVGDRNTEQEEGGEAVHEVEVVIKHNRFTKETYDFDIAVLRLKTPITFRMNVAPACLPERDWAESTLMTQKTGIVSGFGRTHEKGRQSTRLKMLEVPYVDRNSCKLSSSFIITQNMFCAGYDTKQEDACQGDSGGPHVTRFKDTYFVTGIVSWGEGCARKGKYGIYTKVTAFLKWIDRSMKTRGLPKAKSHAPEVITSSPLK
Sequence of Coagulation Factor Xa, from uman plasma (P00742 41-179 limits assumed): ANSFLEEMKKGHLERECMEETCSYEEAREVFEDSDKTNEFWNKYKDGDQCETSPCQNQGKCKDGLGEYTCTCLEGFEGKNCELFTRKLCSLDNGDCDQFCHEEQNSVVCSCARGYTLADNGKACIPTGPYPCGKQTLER

IC50 [11] [µM]	Cathepsin G at 100 μM % [12] [at 100%]	Compound	FXa at 100 μM % [1] [%]	Chymase at 100 μM % (Chymase, from human skin) [%]	Thrombin at 100 μM % [2] [%]	IC50 [3] [µM]	Cytotoxicity LC50/GI50 Hela cells (HELA cells (Acc57)) [µM]	Urokinase at 100 μM % [4] [%]	Tryptase at 100 μM % [5] [%]	IC50 [6] [µM]	Chymotrypsin at 100 μM % [7] [%]	Trypsin at 100 μM % [8] [%]	Hemolysis at 100 μM % [9] [%]	Stability human Plasma t1/2 [10] [h]	Stability rat Plasma t1/2 [10] [h]
		CC[C@H](C)[C@@H]1NC(=O)[C@@H]2CCCN2C(=O)[C@@H]2CCCN2C(=O)[C@H](CC(=O)O)NC(=O)[C@H](CO)NC(=O)[C@H](CCCCN)NC(=O)[C@H]([C@@H](C)O)NC(=O)[C@@H]2CSSC[C@H](NC1=O)C(=O)N[C@@H](CCCNC(=N)N)C(=O)N1CCC[C@@H]1C(=O)N1CCC[C@H]1C(=O)N[C@@H](C1CCCCC1)C(=O)N2 [Ex. 12] (HELM PEPTIDE1{[O=C([C@@H](N[*:1])C1CCCCC1)[*:2]].C.T.K.S.D.P.P.I.C.R.[dP].P}$PEPTIDE1,PEPTIDE1,2:R3-10:R3|PEPTIDE1,PEPTIDE1,1:R1-13:R2$$$V2.0)	5	12	11	37	59.3	12	59.3	0.09	28	97			
		CCCC[C@@H]1NC(=O)[C@H]([C@@H](C)O)NC(=O)[C@@H]2CSSC[C@H](NC(=O)[C@H]([C@@H](C)CC)NC(=O)[C@@H]3CCCN3C(=O)[C@@H]3CCCN3C(=O)[C@H](CC(=O)O)NC(=O)[C@H](CO)NC1=O)C(=O)N[C@@H](CCCNC(=N)N)C(=O)N1CCC[C@@H]1C(=O)N1CCC[C@H]1C(=O)N[C@@H]([C@@H](C)CC)C(=O)N2 [Ex. 22] (HELM PEPTIDE1{I.C.T.[Nle].S.D.P.P.I.C.R.[dP].P}$PEPTIDE1,PEPTIDE1,2:R3-10:R3|PEPTIDE1,PEPTIDE1,1:R1-13:R2$$$V2.0)		98.8		> 100	8	5.7	3.8	0.055	0	84.	0	5	5
0.0138	54.1	CCCC[C@@H]1NC(=O)[C@@H]2CCCN2C(=O)[C@H]2CCCN2C(=O)[C@H](Cc2ccc(O)cc2)NC(=O)[C@H]([C@@H](C)O)NC(=O)[C@H](CCC(N)=O)NC(=O)[C@@H]2CCCN2C(=O)[C@@H]2CCCN2C(=O)[C@H]([C@@H](C)CC)NC(=O)[C@H](CO)NC(=O)[C@H](C)NC(=O)[C@H]([C@@H](C)O)NC(=O)[C@H](CCC(N)=O)NC1=O [Ex. 109] (HELM PEPTIDE1{[Nle].Q.T.A.S.I.P.P.Q.T.Y.[dP].P}$PEPTIDE1,PEPTIDE1,1:R1-13:R2$$$V2.0)	5.6	0.1	0	0.033						0			
